Like-named read-outs stand apart in the source and are kept apart here.
System: Angiotensin II (AII) vasopressor response
Assay: AII Challenge: antagonism of angiotensin II vasopressor response in conscious spontaneously hypertensive rats
Assay type: in vivo, rat (male okamoto-Aoki SHR)
Conditions: 3 mg/kg I.V.; for inhibition in vivo at 3 mg/kg: Rattus norvegicus, iv, read-out: Inhibition; for inhibition in vivo at 3 mg/kg / Average Change: SHR n=2; for Change: single SHR
Source text: Conscious Male okamoto-Aoki SHR, 16-20 weeks old, weighing approximately 330 g are purchased from Charles River Labs (Wilmington, Mass.). Conscious rats are restrained in a supine position with elastic tape. The area at the base of the tail is locally anesthetized by subcutaneous infiltration with 2% procaine. […] The cannula is secured, heparinized (1,000 I.U./ml), sealed and the wound is closed. The animals are placed in plastic restraining cages in an upright position. The cannula is attached to a Statham P23Db pressure transducer, and pulsatile blood pressure is recorded to 10-15 minutes with a Gould Brush recorder. […] Angiotensin II (human sequence, Sigma Chem. Co., St. Louis, Mo.) of 0.05 and 0.1 ug/kg i.v. is injected into all rats (predosing response). Then a test compound, vehicle or a known angiotensin II antagonist is administered i.v., i.p. or orally to each set of rats. […] The vasopressor response of angiotensin II is measured for the increase in systolic blood pressure in mmHg.

[1] = 0.5 h, AII 0.05 mcg/kg IV, 30 min post dose
[2] = 0.5 h, AII 0.1 mcg/kg IV, 30 min post dose
[3] = 1 h, AII 0.05 mcg/kg IV, 60 min post dose
[4] = 1 h, AII 0.1 mcg/kg IV, 60 min post dose
[5] = 2 h, AII 0.05 mcg/kg IV, 120 min post dose
[6] = 2 h, AII 0.1 mcg/kg IV, 120 min post dose
[7] = 3 h, AII 0.05 mcg/kg IV, 180 min post dose
[8] = 3 h, AII 0.1 mcg/kg IV, 180 min post dose
[9] = 4 h, AII 0.05 mcg/kg IV, 240 min post dose
[10] = 4 h, AII 0.1 mcg/kg IV, 240 min post dose
[11] = 5 h, AII 0.05 mcg/kg IV, 300 min post dose
[12] = 5 h, AII 0.1 mcg/kg IV, 300 min post dose
[13] = […], AII 0.05 mcg/kg IV, 90 min post dose
[14] = […], AII 0.1 mcg/kg IV, 90 min post dose
[15] = AII 0.05 mcg/kg IV, 30 min post dose
[16] = AII 0.05 mcg/kg IV, 60 min post dose
[17] = AII 0.05 mcg/kg IV, 90 min post dose
[18] = AII 0.05 mcg/kg IV, 120 min post dose
[19] = AII 0.05 mcg/kg IV, 180 min post dose
[20] = AII 0.05 mcg/kg IV, 240 min post dose
[21] = AII 0.1 mcg/kg IV, 30 min post dose
[22] = AII 0.1 mcg/kg IV, 60 min post dose
[23] = AII 0.1 mcg/kg IV, 90 min post dose
[24] = AII 0.1 mcg/kg IV, 120 min post dose
[25] = AII 0.1 mcg/kg IV, 180 min post dose
[26] = AII 0.1 mcg/kg IV, 240 min post dose
[27] = AII 0.1 mcg/kg IV, 300 min post dose
[28] = AII 0.05 mcg/kg IV, 300 min post dose

SMILES | inhibition in vivo at 3 mg/kg [1] | inhibition in vivo at 3 mg/kg [2] | inhibition in vivo at 3 mg/kg [3] | inhibition in vivo at 3 mg/kg [4] | inhibition in vivo at 3 mg/kg [5] | inhibition in vivo at 3 mg/kg [6] | inhibition in vivo at 3 mg/kg [7] | inhibition in vivo at 3 mg/kg [8] | inhibition in vivo at 3 mg/kg [9] | inhibition in vivo at 3 mg/kg [10] | inhibition in vivo at 3 mg/kg [11] | inhibition in vivo at 3 mg/kg [12] | inhibition in vivo at 3 mg/kg [13] | inhibition in vivo at 3 mg/kg [14] | Average Change [15] | Average Change [16] | Average Change [17] | Average Change [18] | Average Change [19] | Average Change [20] | other results
CCCCc1nc2ccc([C@H]3[C@@H]4CCCCCC[C@@H]4ON3C)cc2c(=O)n1Cc1ccc(-c2ccccc2-c2nnn[nH]2)cc1 (relative stereo) [Example 52] | 89% | 76% | 80% | 59% | 63% | 59% | 20% | 12% | 27% | 47% | 33% | 15% | 24% | 53% | 4 mmHg | 7.5 mmHg | 28.5 mmHg | 14 mmHg | 30 mmHg | 27.5 mmHg | Average Change [21]: 10 mmHg; Average Change [22]: 17.5 mmHg; Average Change [23]: 20 mmHg; Average Change [24]: 17.5 mmHg; Average Change [25]: 37.5 mmHg; Average Change [26]: 22.5 mmHg; Average Change [27]: 36 mmHg; Change [19]: 30 mmHg; Change [28]: 25 mmHg; Change [21]: 10 mmHg
CCCCc1nc2ccc(C3CC4CCCCN3O4)cc2c(=O)n1Cc1ccc(-c2ccccc2-c2nnn[nH]2)cc1 (stereo not drawn) [Example 18, cis-2-Butyl-6-(9-oxa-1-azabicyclo[4.2.1]non-8-yl)-3-[[2'-(1H-tetrazol-5-yl)[1,1'-biphenyl]-4-yl-methyl-4(3H)-quinazolinone] | 68% | 75% | 53% | 60% | 5% | 0% | 58% | 50% | 63% | 10% | 11% | 45% | 47% | 45% | 15 mmHg | 22.5 mmHg | 25 mmHg | 45 mmHg | 20 mmHg | 17.5 mmHg | Average Change [28]: 42.5 mmHg; Average Change [21]: 12.5 mmHg; Average Change [22]: 20 mmHg; Average Change [23]: 27.5 mmHg; Average Change [24]: 50 mmHg; Average Change [25]: 25 mmHg; Average Change [26]: 45 mmHg; Average Change [27]: 27.5 mmHg
